Source: PubChem BioAssay (NCI)
Where “and” joins values, the source holds several entries; their conditions need not be identical. Identical values can stand only once.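 Each compound was tested at five concentrations against cells in 96-well plates for 48 hours. Abbreviation: GI50, concentration required for 50% inhibition of growth. The concentration for full growth arrest is given as TGI.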

What was measured:
Experiment in all cases: inhibition of tumour cell growth, NCI panel, 48 h
SNB-75 CNS = test system: SNB-75 CNS
HL-60(TB) leukemia = test system: HL-60(TB) leukemia
UACC-257 melanoma = test system: UACC-257 melanoma
NCI-H460 lung = test system: NCI-H460 lung
NCI-H226 lung = test system: NCI-H226 lung
EKVX NSCLC = test system: EKVX NSCLC
OVCAR-4 ovarian = test system: OVCAR-4 ovarian
DMS 273 small cell lung = test system: DMS 273 small cell lung
U251 CNS = test system: U251 CNS
HOP-62 NSCLC = test system: HOP-62 NSCLC
UACC-62 melanoma = test system: UACC-62 melanoma
ACHN renal = test system: ACHN renal
A498 renal = test system: A498 renal
OVCAR-5 ovarian = test system: OVCAR-5 ovarian
MALME-3M melanoma = test system: MALME-3M melanoma
SNB-19 CNS = test system: SNB-19 CNS
HT29 colon = test system: HT29 colon
SK-OV-3 ovarian = test system: SK-OV-3 ovarian
SF-295 CNS = test system: SF-295 CNS
SN12C renal = test system: SN12C renal
SF-268 CNS = test system: SF-268 CNS
M14 melanoma = test system: M14 melanoma
TK-10 renal = test system: TK-10 renal
RXF 393 renal = test system: RXF 393 renal
SK-MEL-2 melanoma = test system: SK-MEL-2 melanoma
COLO 205 colon = test system: COLO 205 colon
SW-620 colon = test system: SW-620 colon
DMS 114 small cell lung = test system: DMS 114 small cell lung
CCRF-CEM leukemia = test system: CCRF-CEM leukemia
HCT-15 colon = test system: HCT-15 colon
M19-MEL melanoma = test system: M19-MEL melanoma
OVCAR-3 ovarian = test system: OVCAR-3 ovarian
SK-MEL-28 melanoma = test system: SK-MEL-28 melanoma
MOLT-4 leukemia = test system: MOLT-4 leukemia
HCT-116 colon = test system: HCT-116 colon
IGROV1 ovarian = test system: IGROV1 ovarian
OVCAR-8 ovarian = test system: OVCAR-8 ovarian
HCC-2998 colon = test system: HCC-2998 colon
NCI-H23 lung = test system: NCI-H23 lung
KM20L2 colon = test system: KM20L2 colon
LOX IMVI melanoma = test system: LOX IMVI melanoma
A549 NSCLC = test system: A549 NSCLC
HOP-92 NSCLC = test system: HOP-92 NSCLC
LXFL 529 NSCLC = test system: LXFL 529 NSCLC
DLD-1 colon = test system: DLD-1 colon
XF 498 CNS = test system: XF 498 CNS
SK-MEL-5 melanoma = test system: SK-MEL-5 melanoma
K-562 leukemia = test system: K-562 leukemia
SF-539 CNS = test system: SF-539 CNS
UO-31 renal = test system: UO-31 renal
RPMI-8226 leukemia = test system: RPMI-8226 leukemia
KM12 colon = test system: KM12 colon
SNB-78 CNS = test system: SNB-78 CNS
786-0 renal = test system: 786-0 renal
CAKI-1 renal = test system: CAKI-1 renal
NCI-H522 lung = test system: NCI-H522 lung
HOP-18 NSCLC = test system: HOP-18 NSCLC
SR leukemia = test system: SR leukemia
RXF-631 renal = test system: RXF-631 renal

SMILES: Brc1cc2c(cc1Br)CN(c1ccccc1)C2
- TGI (SNB-75 CNS): > 100 µM
- TGI (HL-60(TB) leukemia): > 100 µM
- TGI (UACC-257 melanoma): > 100 µM
- TGI (NCI-H460 lung): > 100 µM
- TGI (NCI-H226 lung): > 100 µM
- TGI (EKVX NSCLC): > 100 µM
- TGI (OVCAR-4 ovarian): > 100 µM
- TGI (DMS 273 small cell lung): > 100 µM
- TGI (U251 CNS): > 100 µM
- TGI (HOP-62 NSCLC): > 100 µM
- TGI (UACC-62 melanoma): > 100 µM
- TGI (ACHN renal): > 100 µM
- TGI (A498 renal): > 100 µM
- TGI (OVCAR-5 ovarian): > 100 µM
- TGI (MALME-3M melanoma): > 100 µM
- TGI (SNB-19 CNS): > 100 µM
- TGI (HT29 colon): > 100 µM
- TGI (SK-OV-3 ovarian): > 100 µM
- TGI (SF-295 CNS): > 100 µM
- TGI (SN12C renal): > 100 µM
- TGI (SF-268 CNS): > 100 µM
- TGI (M14 melanoma): > 100 µM
- TGI (TK-10 renal): > 100 µM
- TGI (RXF 393 renal): > 100 µM
- TGI (SK-MEL-2 melanoma): > 100 µM
- TGI (COLO 205 colon): > 100 µM
- TGI (SW-620 colon): > 100 µM
- TGI (DMS 114 small cell lung): > 100 µM
- TGI (CCRF-CEM leukemia): > 100 µM
- TGI (HCT-15 colon): > 100 µM
- TGI (M19-MEL melanoma): > 100 µM
- TGI (OVCAR-3 ovarian): > 100 µM
- TGI (SK-MEL-28 melanoma): > 100 µM
- TGI (MOLT-4 leukemia): > 100 µM
- TGI (HCT-116 colon): > 100 µM
- TGI (IGROV1 ovarian): > 100 µM
- TGI (OVCAR-8 ovarian): > 100 µM
- TGI (HCC-2998 colon): > 100 µM
- TGI (NCI-H23 lung): > 100 µM
- TGI (KM20L2 colon): > 100 µM
- TGI (LOX IMVI melanoma): > 100 µM
- TGI (A549 NSCLC): > 100 µM
- TGI (HOP-92 NSCLC): > 100 µM
- TGI (LXFL 529 NSCLC): > 100 µM
- TGI (DLD-1 colon): > 100 µM
- TGI (XF 498 CNS): > 100 µM
- TGI (SK-MEL-5 melanoma): > 100 µM
- TGI (K-562 leukemia): > 100 µM
- TGI (SF-539 CNS): > 100 µM
- TGI (UO-31 renal): > 100 µM
- TGI (RPMI-8226 leukemia): > 100 µM
- TGI (KM12 colon): > 100 µM
- TGI (SNB-78 CNS): > 100 µM
- TGI (786-0 renal): > 100 µM

SMILES: CCN(CC)CC(=N)N(CC)c1ccccc1
- TGI (SNB-75 CNS): > 100 µM
- TGI (HL-60(TB) leukemia): > 100 µM
- TGI (UACC-257 melanoma): > 100 µM
- TGI (NCI-H460 lung): > 100 µM
- TGI (NCI-H226 lung): > 100 µM
- TGI (EKVX NSCLC): > 100 µM
- TGI (OVCAR-4 ovarian): > 100 µM
- TGI (U251 CNS): > 100 µM
- TGI (HOP-62 NSCLC): > 100 µM
- TGI (UACC-62 melanoma): > 100 µM
- TGI (ACHN renal): > 100 µM
- TGI (A498 renal): > 100 µM
- TGI (OVCAR-5 ovarian): > 100 µM
- TGI (MALME-3M melanoma): > 100 µM
- TGI (SNB-19 CNS): > 100 µM
- TGI (SK-OV-3 ovarian): > 100 µM
- TGI (SF-295 CNS): > 100 µM
- TGI (SN12C renal): > 100 µM
- TGI (SF-268 CNS): > 100 µM
- TGI (M14 melanoma): > 100 µM
- TGI (TK-10 renal): > 100 µM
- TGI (RXF 393 renal): > 100 µM
- TGI (SK-MEL-2 melanoma): > 100 µM
- TGI (COLO 205 colon): > 100 µM
- TGI (SW-620 colon): > 100 µM
- TGI (DMS 114 small cell lung): > 100 µM
- TGI (CCRF-CEM leukemia): > 100 µM
- TGI (CAKI-1 renal): > 100 µM
- TGI (HCT-15 colon): > 100 µM
- TGI (M19-MEL melanoma): > 100 µM
- TGI (OVCAR-3 ovarian): > 100 µM
- TGI (SK-MEL-28 melanoma): > 100 µM
- TGI (MOLT-4 leukemia): > 100 µM
- TGI (HCT-116 colon): > 100 µM
- TGI (IGROV1 ovarian): > 100 µM
- TGI (OVCAR-8 ovarian): > 100 µM
- TGI (HCC-2998 colon): > 100 µM
- TGI (NCI-H23 lung): > 100 µM
- TGI (KM20L2 colon): > 100 µM
- TGI (LOX IMVI melanoma): > 100 µM
- TGI (A549 NSCLC): > 100 µM
- TGI (NCI-H522 lung): > 100 µM
- TGI (HOP-92 NSCLC): > 100 µM
- TGI (LXFL 529 NSCLC): > 100 µM
- TGI (DLD-1 colon): > 100 µM
- TGI (XF 498 CNS): > 100 µM
- TGI (SK-MEL-5 melanoma): > 100 µM
- TGI (K-562 leukemia): > 100 µM
- TGI (HOP-18 NSCLC): > 100 µM
- TGI (SF-539 CNS): > 100 µM
- TGI (UO-31 renal): > 100 µM
- TGI (RPMI-8226 leukemia): > 100 µM
- TGI (KM12 colon): > 100 µM
- TGI (SNB-78 CNS): > 100 µM
- TGI (786-0 renal): > 100 µM

SMILES: O=C(/C=C\c1cccc2ccccc12)c1cccc2ccccc12
- TGI (SNB-75 CNS): 18.6 µM
- GI50 (HL-60(TB) leukemia): 2.9 µM
- TGI (HL-60(TB) leukemia): 9.29 µM and 25.6 µM
- TGI (UACC-257 melanoma): 29.9 µM
- GI50 (NCI-H226 lung): 12.2 µM
- TGI (NCI-H226 lung): 25 µM
- TGI (EKVX NSCLC): 27.6 µM
- GI50 (OVCAR-4 ovarian): 11.3 µM
- TGI (OVCAR-4 ovarian): 36.9 µM
- GI50 (DMS 273 small cell lung): 4.03 µM
- TGI (DMS 273 small cell lung): 24.7 µM
- GI50 (U251 CNS): 12 µM
- TGI (U251 CNS): 24.4 µM
- TGI (HOP-62 NSCLC): 39.7 µM
- TGI (UACC-62 melanoma): 27.8 µM
- TGI (ACHN renal): 24.1 µM
- TGI (A498 renal): 31.7 µM
- TGI (MALME-3M melanoma): 36.1 µM
- TGI (SNB-19 CNS): 23.7 µM
- GI50 (SR leukemia): 3.95 µM
- TGI (SR leukemia): > 100 µM
- GI50 (HT29 colon): 4.47 µM
- TGI (SF-295 CNS): 30.2 µM
- TGI (SN12C renal): > 100 µM
- GI50 (SF-268 CNS): 4.74 µM
- TGI (SF-268 CNS): 22.1 µM
- TGI (M14 melanoma): 26 µM
- GI50 (RXF 393 renal): 7.46 µM
- TGI (RXF 393 renal): 20.1 µM
- TGI (SK-MEL-2 melanoma): 36.8 µM
- GI50 (SW-620 colon): 2.7 µM
- TGI (SW-620 colon): 10.6 µM
- GI50 (CCRF-CEM leukemia): 2.28 µM
- TGI (CCRF-CEM leukemia): 8.97 µM
- TGI (CAKI-1 renal): 32.4 µM
- TGI (HCT-15 colon): 19.6 µM
- TGI (M19-MEL melanoma): 33.6 µM
- GI50 (OVCAR-3 ovarian): 12.5 µM
- TGI (OVCAR-3 ovarian): 25.3 µM
- TGI (SK-MEL-28 melanoma): 20.5 µM
- GI50 (MOLT-4 leukemia): 2.49 µM
- TGI (MOLT-4 leukemia): 8.08 µM and 20.5 µM
- GI50 (HCT-116 colon): 3.36 µM
- TGI (HCT-116 colon): 13.4 µM
- TGI (IGROV1 ovarian): 25.9 µM
- GI50 (OVCAR-8 ovarian): 2.61 µM
- TGI (OVCAR-8 ovarian): 6.01 µM
- TGI (HCC-2998 colon): 28.4 µM
- GI50 (NCI-H23 lung): 2.09 µM
- TGI (NCI-H23 lung): 8.96 µM
- GI50 (KM20L2 colon): 3.96 µM
- TGI (KM20L2 colon): 15 µM
- GI50 (LOX IMVI melanoma): 4.42 µM
- TGI (LOX IMVI melanoma): 18 µM
- TGI (A549 NSCLC): 36.5 µM
- GI50 (NCI-H522 lung): 4.46 µM
- TGI (NCI-H522 lung): 16.1 µM
- GI50 (RXF-631 renal): 10.5 µM
- TGI (RXF-631 renal): 26.4 µM
- GI50 (LXFL 529 NSCLC): 2.9 µM
- TGI (LXFL 529 NSCLC): 13.6 µM
- GI50 (DLD-1 colon): 3.43 µM
- TGI (DLD-1 colon): 15.8 µM
- TGI (SK-MEL-5 melanoma): 27.1 µM
- GI50 (K-562 leukemia): 2.82 µM
- TGI (K-562 leukemia): 18.6 µM
- TGI (SF-539 CNS): 28 µM
- TGI (UO-31 renal): 27.4 µM
- GI50 (RPMI-8226 leukemia): 2.68 µM
- TGI (RPMI-8226 leukemia): > 100 µM
- GI50 (KM12 colon): 4.2 µM
- TGI (KM12 colon): 16.5 µM
- TGI (786-0 renal): 17.4 µM
